Each block holds one compound with its values, some of them ahead of it.
Key:
[1] = target: T1, Human immunodeficiency virus type 1 integrase (Human immunodeficiency virus 1, UniProt Q7ZJM1); assay: Inhibition of Human immunodeficiency virus 1 integrase strand transfer activity after 30 mins by polyacrylamide gel electrophoresis
[2] = target: T1, Human immunodeficiency virus type 1 integrase; assay: Inhibition of Human immunodeficiency virus 1 integrase-mediated 3'-processing after 30 mins by polyacrylamide gel electrophoresis
[3] = system: Human immunodeficiency virus 1; assay: Antiviral activity against Human immunodeficiency virus 1 LAI infected in human PBMC assessed as inhibition of viral replication after 5 days by reverse transcriptase assay; assay type: functional, organism-based; settings: 120 h
PBMC = assay: Cytotoxicity against human PBMC after 6 days by trypan blue assay; settings: 144 h
CCRF-CEM = assay: Cytotoxicity against human CEM cells after 6 days by trypan blue assay; settings: 144 h

T1 sequence (Q7ZJM1 whole entry): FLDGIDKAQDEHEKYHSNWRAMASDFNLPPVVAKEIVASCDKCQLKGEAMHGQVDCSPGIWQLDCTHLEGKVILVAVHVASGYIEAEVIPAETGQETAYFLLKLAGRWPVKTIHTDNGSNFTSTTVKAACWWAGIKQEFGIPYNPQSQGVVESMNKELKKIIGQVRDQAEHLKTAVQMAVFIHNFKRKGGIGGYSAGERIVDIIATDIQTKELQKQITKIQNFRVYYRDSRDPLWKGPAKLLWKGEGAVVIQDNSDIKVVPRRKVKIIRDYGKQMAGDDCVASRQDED

SMILES: COc1ccc(/C=C/C(=O)c2cc(Br)cc(C(=O)O)c2O)c(OC)c1OC
- IC50 [1]: 51 µM
- IC50 [2]: 85 µM

SMILES: O=C(O)c1cc(Br)cc(C(=O)/C=C/c2cc(Cl)ccc2Cl)c1O
- IC50 [1]: 18 µM
- IC50 [2]: 47 µM

SMILES: O=C(O)c1cc(Br)cc(C(=O)/C=C/c2c(Cl)cccc2Cl)c1O
- IC50 [1]: 16 µM
- IC50 [2]: 52 µM

SMILES: O=C(O)c1cc(Br)cc(C(=O)/C=C/c2ccc(Cl)c(Cl)c2)c1O
- IC50 [1]: 14 µM
- IC50 [2]: 27 µM

SMILES: O=C(O)c1cc(Br)cc(C(=O)/C=C/c2cc(Cl)cc(Cl)c2Cl)c1O
- IC50 [1]: 13 µM
- IC50 [2]: 20 µM

SMILES: O=C(O)c1cc(Br)cc(C(=O)/C=C/c2c(Cl)ccc(Cl)c2Cl)c1O
- IC50 [1]: < 3.7 µM
- IC50 [2]: 23 µM
- EC50 [3]: 7.3 µM
- EC90 [3]: 20.3 µM
- IC50 (PBMC): 22.7 µM
- IC50 (CCRF-CEM): 19 µM

SMILES: O=C(O)c1cc(Cl)cc(C(=O)/C=C/c2ccc(Cl)cc2)c1O
- IC50 [1]: 53 µM
- IC50 [2]: 85 µM

- IC50 [1]: > 100 µM
- IC50 [2]: > 100 µM
SMILES: O=C(O)c1cc(Cl)cc(C(=O)/C=C/c2ccc(Cl)cc2Cl)c1O

SMILES: O=C(O)c1cc(Cl)cc(C(=O)/C=C/c2cccc(Cl)c2Cl)c1O
- IC50 [1]: 92 µM
- IC50 [2]: 100 µM

SMILES: O=C(O)c1cc(Cl)cc(C(=O)/C=C/c2cc(Cl)ccc2Cl)c1O
- IC50 [1]: 25 µM
- IC50 [2]: 75 µM

SMILES: O=C(O)c1cc(Cl)cc(C(=O)/C=C/c2cc(Cl)cc(Cl)c2Cl)c1O
- IC50 [1]: 17 µM
- IC50 [2]: 55 µM

SMILES: O=C(O)c1cc(Cl)cc(C(=O)/C=C/c2c(Cl)ccc(Cl)c2Cl)c1O
- IC50 [1]: 30 µM
- IC50 [2]: 77 µM

SMILES: O=C(O)c1cc(Cl)cc(C(=O)/C=C/c2ccc(Cl)c(Cl)c2)c1O
- IC50 [1]: 41 µM
- IC50 [2]: 87 µM

SMILES: O=C(O)c1cc(F)cc(C(=O)/C=C/c2ccc(Cl)cc2)c1O
- IC50 [1]: 17 µM
- IC50 [2]: 36 µM

SMILES: O=C(O)c1cc(F)cc(C(=O)/C=C/c2ccc(Cl)cc2Cl)c1O
- IC50 [1]: 24 µM
- IC50 [2]: 52 µM

SMILES: O=C(O)c1cc(F)cc(C(=O)/C=C/c2cccc(Cl)c2Cl)c1O
- IC50 [1]: 30 µM
- IC50 [2]: 55 µM

SMILES: O=C(O)c1cc(F)cc(C(=O)/C=C/c2cc(Cl)ccc2Cl)c1O
- IC50 [1]: 29 µM
- IC50 [2]: 50 µM

SMILES: O=C(O)c1cc(F)cc(C(=O)/C=C/c2cc(Cl)cc(Cl)c2Cl)c1O
- IC50 [1]: 15 µM
- IC50 [2]: 33 µM

SMILES: O=C(O)c1cc(F)cc(C(=O)/C=C/c2c(Cl)ccc(Cl)c2Cl)c1O
- IC50 [1]: 39 µM
- IC50 [2]: 82 µM

SMILES: Cc1cc(C)cc(/C=C/C(=O)c2cc(Br)cc(C(=O)O)c2O)c1
- IC50 [1]: 58 µM
- IC50 [2]: > 100 µM

SMILES: COc1ccc(/C=C/C(=O)c2cc(Br)cc(C(=O)O)c2O)c(Cl)c1OC
- IC50 [1]: 76 µM
- IC50 [2]: > 100 µM

SMILES: COc1cc(F)c(/C=C/C(=O)c2cc(Br)cc(C(=O)O)c2O)cc1OC
- IC50 [1]: 76 µM
- IC50 [2]: > 100 µM

SMILES: O=C(O)c1cc(Br)cc(C(=O)/C=C/c2ccccc2OCc2ccccc2)c1O
- IC50 [1]: 9 µM
- IC50 [2]: 21 µM

SMILES: O=C(O)c1cc(Br)cc(C(=O)/C=C/c2cccc(Oc3ccc(Cl)cc3)c2)c1O
- IC50 [1]: 18 µM
- IC50 [2]: 25 µM

SMILES: O=C(O)c1cc(Br)cc(C(=O)/C=C/c2ccc(Oc3ccc(Cl)cc3)cc2)c1O
- IC50 [1]: 16 µM
- IC50 [2]: 22 µM

SMILES: O=C(O)c1cc(Br)cc(C(=O)/C=C/c2ccsc2)c1O
- IC50 [1]: 18 µM
- IC50 [2]: 30 µM

SMILES: COc1ccc(/C=C/C(=O)c2cc(Br)cc(C(=O)O)c2O)cc1OC1CCCC1
- IC50 [1]: 55 µM
- IC50 [2]: 100 µM

SMILES: CCOc1ccc2ccccc2c1/C=C/C(=O)c1cc(Br)cc(C(=O)O)c1O
- IC50 [1]: 46 µM
- IC50 [2]: 92 µM

- IC50 [2]: 54 µM
SMILES: COc1cccc2c(/C=C/C(=O)c3cc(Br)cc(C(=O)O)c3O)cccc12

SMILES: O=C(O)c1cc(Br)cc(C(=O)/C=C/c2ccc3sccc3c2)c1O
- IC50 [1]: 11 µM
- IC50 [2]: 23 µM
- EC50 [3]: 10.1 µM
- EC90 [3]: 24.3 µM
- IC50 (PBMC): 39.1 µM
- IC50 (CCRF-CEM): 20.7 µM

SMILES: O=C(O)c1cc(Br)cc(C(=O)/C=C/c2ccccc2-c2ccco2)c1O
- IC50 [1]: 16 µM
- IC50 [2]: > 100 µM

SMILES: O=C(O)c1cc(Br)cc(C(=O)/C=C/c2cc3c(cc2Cl)OCO3)c1O
- IC50 [1]: 63 µM
- IC50 [2]: 79 µM

SMILES: O=C(O)c1cc(Br)cc(C(=O)/C=C/c2cccc(OC(F)(F)F)c2)c1O
- IC50 [1]: 52 µM
- IC50 [2]: > 100 µM

SMILES: O=C(O)c1cc(Br)cc(C(=O)/C=C/c2cccc([N+](=O)[O-])c2)c1O
- IC50 [1]: 32 µM
- IC50 [2]: 49 µM

SMILES: O=C(O)c1cc(Br)cc(C(=O)/C=C/c2cccc(Br)c2)c1O
- IC50 [1]: 18 µM
- IC50 [2]: 19 µM

SMILES: O=C(O)c1cc(Br)cc(C(=O)/C=C/c2cccc(F)c2)c1O
- IC50 [1]: 59 µM
- IC50 [2]: 71 µM

SMILES: N#Cc1cc(Br)cc(C(=O)/C=C/c2c(Cl)ccc(Cl)c2Cl)c1O
- IC50 [1]: 44 µM
- IC50 [2]: > 100 µM

SMILES: Cc1cc(C(=O)O)c(O)c(C(=O)/C=C/c2c(Cl)ccc(Cl)c2Cl)c1
- IC50 [1]: 50 µM
- IC50 [2]: > 100 µM

- IC50 [2]: > 333 µM
SMILES: O=C(/C=C/c1cc(Br)cc([N+](=O)[O-])c1O)c1cc(Cl)cc(Cl)c1Cl

SMILES: O=Cc1cc(Br)cc(C(=O)NCc2ccc(F)cc2)c1O
- IC50 [1]: 8 µM
- IC50 [2]: > 100 µM
- EC50 [3]: 30.8 µM
- EC90 [3]: 52.7 µM
- IC50 (PBMC): 44 µM
- IC50 (CCRF-CEM): 40.2 µM

SMILES: O=C(O)c1cc(F)cc(C(=O)CCc2cc(Cl)ccc2Cl)c1O
- IC50 [1]: 57 µM
- IC50 [2]: > 100 µM

SMILES: O=C(O)c1cc(Br)cc(C(=O)NCc2ccc(F)cc2)c1O
- IC50 [1]: 15 µM
- IC50 [2]: > 100 µM

- IC50 [1]: > 100 µM
- IC50 [2]: > 100 µM
SMILES: Cc1cccc(C(=O)NCc2ccc(F)cc2)c1O

- IC50 [1]: > 100 µM
- IC50 [2]: > 100 µM
SMILES: O=C(NCc1ccc(F)cc1)c1cc(Br)ccc1O

SMILES: O=C(O)c1cc(Br)cc(C(=O)/C=C/c2ccccc2)c1O
- IC50 [1]: 25 µM
- IC50 [2]: 75 µM

SMILES: O=C(O)c1cc(Br)cc(C(=O)/C=C/c2ccccc2Cl)c1O
- IC50 [1]: 14 µM
- IC50 [2]: 52 µM

SMILES: O=C(O)c1cc(Br)cc(C(=O)/C=C/c2ccccc2F)c1O
- IC50 [1]: 32 µM
- IC50 [2]: 74 µM

SMILES: O=C(O)c1cc(Br)cc(C(=O)/C=C/c2cccc(Cl)c2)c1O
- IC50 [1]: 9 µM
- IC50 [2]: 45 µM

SMILES: O=C(O)c1cc(Br)cc(C(=O)/C=C/c2ccc(Cl)cc2)c1O
- IC50 [1]: 12 µM
- IC50 [2]: 81 µM

SMILES: O=C(O)c1cc(Br)cc(C(=O)/C=C/c2ccc(Br)cc2)c1O
- IC50 [1]: 5 µM
- IC50 [2]: 11 µM
- EC50 [3]: 8.7 µM
- EC90 [3]: 21 µM
- IC50 (PBMC): 24.4 µM
- IC50 (CCRF-CEM): 27.5 µM

SMILES: O=C(O)c1cc(Br)cc(C(=O)/C=C/c2ccc(I)cc2)c1O
- IC50 [1]: 35 µM
- IC50 [2]: 69 µM

SMILES: O=C(O)c1cc(Br)cc(C(=O)/C=C/c2ccc(Cl)cc2Cl)c1O
- IC50 [1]: 7 µM
- IC50 [2]: 28 µM
- EC50 [3]: 13.9 µM
- EC90 [3]: 26 µM
- IC50 (PBMC): 22.1 µM
- IC50 (CCRF-CEM): 23.8 µM

SMILES: O=C(O)c1cc(Br)cc(C(=O)/C=C/c2cccc(Cl)c2Cl)c1O
- IC50 [1]: 19 µM
- IC50 [2]: 58 µM

SMILES: COc1cccc(/C=C/C(=O)c2cc(Br)cc(C(=O)O)c2O)c1OC
- IC50 [1]: 34 µM
- IC50 [2]: 62 µM

- EC50 [3]: 0.0025 µM
- EC90 [3]: 0.01 µM
SMILES: Cc1cn([C@H]2C[C@H](N=[N+]=[N-])[C@@H](CO)O2)c(=O)[nH]c1=O [ZIDOVUDINE]
- IC50 (PBMC): > 100 µM
- IC50 (CCRF-CEM): 56.1 µM

Reference: ChEMBL document CHEMBL1681786, “Synthesis, biological evaluation and 3D-QSAR studies of 3-keto salicylic acid chalcones and related amides as novel HIV-1 integrase inhibitors” (Bioorg Med Chem, 2011)
